Assay results from US20060009433A1, “Neuroprotective spirostenol pharmaceutical compositions” (priority 2003, published 2006).
“Also recorded” adds a separate entry of the source.

Columns and labels:
[1] = CPBBA with NT2 cell protein; assay type: binding, human; conditions: 3 hours at 37° C.; competition with unlabeled compound
Description: After incubation, samples were separated by 1.0% agarose (Type I-B) gel electrophoresis and transferred to a nitrocellulose membrane (Schleicher & SchueII, Keene, N.H., USA) in 10×saline-sodium citrate (SSC) buffer. The membrane was exposed to a tritium-sensitive screen and analyzed by phosphoimaging using the Cyclone Storage Phosphor System (Packard BioScience, Meridien, Conn., USA). Image-densitometric analyses were performed using the OptiQuant software (Packard). […] Low molecular weight unincorporated 22R-hydroxycholesterol is separated and eliminated during electrophoresis.

[2] = system: human NT2 cells; assay: MTT assay, glutamate-induced toxicity in NT2 cells; assay type: cell-based; conditions: 5 mM glutamate, three days; 1 to 50 μM compound; data not shown
[3] = system: rat PC12 neuronal cells; assay: MTT assay, Aβ1-42-induced cytotoxicity in PC12 cells (Example I)
[4] = system: NT2 cells; assay: BrdU assay, NT2 cell proliferation; assay type: cell-based, human
[5] = system: PC12 cells; assay: Membrane potential (CytoLite luminescence) in Aβ-treated PC12 cells; assay type: cell-based, rat
Description: PC12 cells (rat pheochromocytoma neurons) from ATCC (Manassas, Va.) were cultured at 37° C. and 5% CO2 in RPMI 1640 medium devoid of glutamine and supplemented with 10% fetal bovine serum and 5% horse serum. Yao Z, Drieu K and Papadopoulos V., The Gingko biloba extract EGb 761 rescues PC12 neuronal cells from β-amyloid-induced cell death by inhibiting the formation of (3-amyloid-derived diffusible neurotoxic ligands, Brain Res, 889, 181-190 (2001). Cells were seeded in 96-well plates (8×10^4 cells/well). After an overnight period of incubation, increasing concentrations of aggregated Aβ (0.1, 1 and 10 μM) were added to the cells in the presence or absence of the indicated concentrations of the SP compounds to be tested. After 72-hours incubation time various parameters, markers of cell viability, were determined. Mouse MA-10 tumor Leydig cells were maintained at 37° C. in DMEM/Ham's F12 (Biofluids, Rockville, Md.) medium supplemented with 5% heat-inactivated fetal calf serum and 2.5% horse serum in 5% CO2. Cells were plated on 96-well plates at the density of 2.5×10^4 cells/well for overnight. The cells were stimulated with the indicated concentrations of the various SP compounds in 0.2 ml/well serum-free medium for 2 hours. The culture medium was collected and tested for progesterone production by radioimmunoassay.
Cells viability was also assessed using the luminescence-based kit CytoLite™ (Packard BioScience Co.) according to the recommendations of the manufacturer. Briefly, cells were cultured and treated in 96-well plates and after 72-hours incubation time, 25 μl of Activator solution was added to the cells followed by 150 μl of Amplifier solution. Luminescence was measured on a TopCount NXT™ counter (Packard BioSciences Co.) following a 5 minute precount delay.

[6] = system: NT2 cells; assay: NT2 cell differentiation, phase-contrast morphology; assay type: cell-based, human; conditions: 25 μM; 3, 6 and 12 days (comparators 6 days)
[7] = system: NT2 cells; assay: LDH and MTT assays, NT2 cell viability
[8] = system: NT2 cells; assay: Expression of neurofilament proteins NF70, NF145, NF200 by NT2 cells (immunoblot); assay type: cell-based, human; conditions: 6 days
Description: Cells were fixed with newly prepared 3.7% formaldehyde for 15 minutes and blocked by blocking reagent (Zymed Laboratories, San Francisco, Calif., USA). Inuunostaining was performed using rabbit anti-NF200, anti-NF145 and anti-NF70 (all at 1:200), and goat anti-GFRα1, anti-GFRα2 and anti-GFRα3 (all at 1:100); Santa Cruz Biotechnology (Santa Cruz, Calif., USA). All antibodies were used at 200 μg/ml. After overnight incubation at 4° C., the immunoreactivity was detected using horseradish peroxidase-conjugated anti-rabbit or anti-mouse IgG for 1 hour at room temperature and visualized using AEC.
Cells were then washed with phosphate-buffered saline (PBS) and lysed with loading buffer. Proteins were resolved by sodium dodecyl sulfate polyacrylamide gel electrophoresis (SDS-PAGE) on 4-20% gradient acrylamide-bis-acrylamide gel at 125 V for 2 hours and electrotransferred onto nitrocellulose membranes. After blocking with 5% nonfat milk, the membranes were subjected to immunoblot analysis by incubation overnight with rabbit anti-NF200, anti-NF145 and anti-NF70 (all at 1:4000) (Chemicon International, Temecula, Calif., USA) and goat anti-GFRα1, anti-GFRα2 and anti-GFRα3 (all at 1:500) (200 μg/ml; Santa Cruz Biotechnology, Inc., Santa Cruz, Calif., USA), goat anti-rabbit or rabbit anti-goat IgG-horseradish peroxidase being used as the secondary antibody (1:5000) (Zymed Laboratories, San Francisco, Calif., USA). Protein bands were visualized using ECL reagents (Amersham Pharmacia Biotech, Piscataway, N.J., USA). Image-densitometric analyses of the immunoreactive protein bands were performed using OptiQuant-image analysis software (Packard BioScience, Meriden, Conn., USA). Glyceraldehyde-3-phosphate dehydrogenase (GAPPH) served as an internal standard.

[9] = system: PC12 cells, MDA-MB-231 cells or the human glioma cell line U87; assay: Differentiation in other cell lines; assay type: cell-based; conditions: data not shown

## CC(C)CC[C@@H](O)[C@@H](C)[C@H]1CC[C@H]2[C@@H]3CC=C4C[C@@H](O)CC[C@]4(C)[C@H]3CC[C@]12C [SP222, 22R-hydroxycholesterol]
[1]
  radiolabeling of NT2 cell protein with 3H-22R-hydroxycholesterol: decreased in the presence of increasing concentrations of unlabeled 22R-hydroxycholesterol
[2]
  protection against glutamate-induced decrease in cell viability: failed to protect the cells
[3]; MTT, 25 μM Aβ1-42
  rescue from 25 μM Aβ-induced cytotoxicity: rescue all the cells; also recorded: full protection
[3]; MTT, 50 μM Aβ1-42
  cells rescued in the presence of 50 μM Aβ: 50%
[3]; MTT, absence of Aβ
  PC12 cell viability, steroid alone: did not affect PC12 cell viability
[3]; Rattus norvegicus, PC-12, read-out: IC50 of protection from Aβ-induced toxicity
  IC50: 10 µM
[3]; pretreatment of PC12 cells, data not shown
  protection by pretreatment followed by treatment with Aβ: failed to offer any protection
[3]; soluble Aβ (oligomers), not shown
  protection against Aβ oligomer-induced toxicity: protected
[4]; 25 μM
  NT2 cell proliferation at 25 μM: significantly inhibited
[4]; 50 μM
  NT2 cell proliferation at 50 μM: significantly inhibited
[5]; 0.1 μM Aβ
  protection against 0.1 μM Aβ, membrane potential luminescence: protected
[5]; 1.0 and 10.0 μM Aβ
  protection against the two highest concentrations of Aβ, membrane potential luminescence: failed to do so
[6]
  effect on NT2 cell morphology (differentiation): induced morphologic changes
[7]; LDH and MTT, 25-50 μM, 3-day treatment
  cytotoxicity at high concentrations: cytotoxic
[7]; MTT
  concentration affecting viability of undifferentiated NT2 cells: > 10 µM
[8]; 1 μM
  NF70 protein level: 83 % of the control level
[8]; 5 μM
  NF145 expression: increase that was apparent at 5 μM
  NF200 protein expression: 210 % of the control value
[8]; 25 μM
  NF145 expression: 56 % of control levels
  NF200 protein expression: 180 % of the control value
[8]; 50 μM
  NF70 protein level: 18 % of the control level
[9]
  induction of differentiation in PC12, MDA-MB-231 or U87 cells: such an effect was not found
